Experimental data as given in patent publication US9512420B2, “Use of N-acetylneuraminic acid aldolase in catalytic synthesis of N-acetylneuraminic acid” (Nanjing University of Technology, priority 2013, dated 2016).

Tests used:
CgNal = CgNal (Corynebacterium glutamicum, UniProt Q8NMD2); test: Effects of metal ions and surfactant on the CgNal activity; assay type: biochemical, Corynebacterium glutamicum ATCC 13032; settings: for effect on reaction of CgNal in the decomposing Neu5Ac direction / effect on reaction of CgNal in the synthesizing Neu5Ac direction: pH 7.5; for effect on superiority of Neu5Ac synthesis over Neu5Ac decomposition / overall effect on CgNal enzyme activity: pH 8.5
[1] = substrate: CC(=O)N[C@@H]1C(O)O[C@H](CO)[C@@H](O)[C@@H]1O; test: purified protein, by the assay type; settings: substrate of CgNal, co-substrate fixed at 100 mM for ManNAc and pyruvic acid, 37.0 °C
[2] = substrate: CC(=O)N[C@H]1[C@H]([C@H](O)[C@H](O)CO)OC(O)(C(=O)O)C[C@@H]1O; test: purified protein, by the assay type; settings: substrate of CgNal, co-substrate fixed at 100 mM for ManNAc and pyruvic acid, 37.0 °C
[3] = substrate: CC(=O)C(=O)O; test: purified protein, by the assay type; settings: substrate of CgNal, co-substrate fixed at 100 mM for ManNAc and pyruvic acid, 37.0 °C

CCCCCCCCCCCCOS(=O)(=O)[O-].[Na+] [SDS]
effect on reaction of CgNal in the decomposing Neu5Ac direction (CgNal; 5 mM additive): inhibited
effect on reaction of CgNal in the synthesizing Neu5Ac direction (CgNal; 5 mM additive): promoted
effect on superiority of Neu5Ac synthesis over Neu5Ac decomposition (CgNal; 5 mM additive): promoted
overall effect on CgNal enzyme activity (CgNal; 5 mM additive): decreased the enzyme activity

CCCCCCCCCCCCCCCC[N+](C)(C)C.[Br-] [CTAB]
effect on reaction of CgNal in the decomposing Neu5Ac direction (CgNal): inhibited
overall effect on CgNal enzyme activity (CgNal): decreased the enzyme activity

ZnCl2
effect on reaction of CgNal in the decomposing Neu5Ac direction (CgNal): inhibited
effect on reaction of CgNal in the synthesizing Neu5Ac direction (CgNal): promoted
effect on superiority of Neu5Ac synthesis over Neu5Ac decomposition (CgNal): promoted
overall effect on CgNal enzyme activity (CgNal): decreased the enzyme activity

NiSO4
effect on reaction of CgNal in the decomposing Neu5Ac direction (CgNal): inhibited
effect on reaction of CgNal in the synthesizing Neu5Ac direction (CgNal): promoted

CoCl2
effect on reaction of CgNal in the decomposing Neu5Ac direction (CgNal): inhibited
effect on reaction of CgNal in the synthesizing Neu5Ac direction (CgNal): promoted

B1: CgNal (Corynebacterium glutamicum ATCC 13032) (protein)
chain: MASATFTGVIPPVMTPLHADGSVDVESLRKLVDHLINGGVDGLFALGSSGEAAFLTRAQRKLALTTIIEHTAGRVPVTAGVIETTTARVIELVEDALEAGAEGLVATAPFYTRTHDVEIEEHFRKIHAAAPELPLFAYNIPVSVHSNLNPVMLLTLAKDGVLAGTKDSSGNDGAIRSLIEARDDAGLTEQFKILTGSETTVDFAYLAGADGVVPGLGNVDPAAYAALAKLCLDGKWAEAAALQKRINHLFHIVFVGDTSHMSGSSAGLGGFKTALAHLGIIESNAMAVPHQSLSDEETARIHAIVDEFLYTA
Km ([1]; other: pH 7.5, pH 7.5): 53.3 mM
Vmax ([1]; other: pH 7.5, pH 7.5): 10.2 U/mg
Km ([1]; other: pH 8.5, pH 8.5): 92.1 mM
Vmax ([1]; other: pH 8.5, pH 8.5): 73.2 U/mg
Km ([2]; other: pH 7.5, pH 7.5): 33.5 mM
Vmax ([2]; other: pH 7.5, pH 7.5): 16.74 U/mg
Km ([2]; other: pH 8.5, pH 8.5): 87.7 mM
Vmax ([2]; other: pH 8.5, pH 8.5): 79.6 U/mg
Km ([3]; other: pH 7.5, pH 7.5): 14.7 mM
Vmax ([3]; other: pH 7.5, pH 7.5): 10.98 U/mg
Km ([3]; other: pH 8.5, pH 8.5): 72.4 mM
Vmax ([3]; other: pH 8.5, pH 8.5): 76.64 U/mg
